Laboratory results taken from patent publication US20210052703A1 (SHANGHAI BENEMAE PHARMACEUTICAL CORPORATION, priority 2018, published 2021).
Read-outs that look alike come from different tables or passages of the source.

Tests used:
[1] = system: male diet induced obesity (DIO) mice; conditions: for % of Gastric Remains / Gross Weight of Stomach / Propelling Distance of Carbon Powder / Propelling Rate of Carbon Powder: X ± SE
Procedure: (§1) Five minutes after subcutaneous injection, gavage was conducted using 5% carbon powder suspension (in 2% carboxymethylcellulose solution) at 1.5 ml/100 g body weight. […] The stomach was wiped dry with filter paper and weighed for the gross weight of the stomach. Then the content of the stomach was removed and the stomach was weighed for the net weight. The respective distance from the pyloric sphincter to the front of carbon powder suspension and to the distal end of the large intestine was measured. • propelling distance of carbon powder in the intestine (cm)=distance from pylorus to the proximal end of carbon powder; • mass of carbon powder gavaged=concentration of carbon powder suspension×volume; • propelling rate of carbon powder (%)=propelling distance of carbon powder in the intestine (cm)/entire length of intestine (cm)×100%; • rate of gastric remains (%)=(gross weight of stomach−net weight of stomach)/mass of carbon powder gavaged×100%.
(§2) The animals were fasted 29-33 hours before injection, and the animals were not given any water 5-7 hours before injection. Injections were made by subcutaneous administration to the neck, at 0.1 ml/100 g body weight.

[2] = system: rabbits with normal glycemic index; test: glucose-induced high blood sugar in rabbits; type: in vivo
[3] = pharmacokinetic studies in monkey models; conditions: in vivo, sc
[4] = system: rats; test: blood sugar increase induced by alloxan and streptozotocin in rats; type: in vivo
[5] = system: animals having a normal level of blood sugar; test: blood sugar and insulin in animals having a normal level of blood sugar; type: in vivo
[6] = system: Sprague-Dawley (SD) rats; test: stomach emptying and carbon powder propelling in SD rats (Example 1); type: in vivo, rat; conditions: X ± SE
Procedure: Each group had 10 rats, half male and half female. The tails of the rats were labeled as follows:
The dose selection is calculated based on human dose. The clinical human dose is estimated to be about 0.4 mg/injection, one injection per day, which corresponds to 36 μg/kg rat dose, calculated based on the body surface area. Accordingly, the rats were tested at a medium dose of 30 μg/kg, a low dose at 50% of the medium dose, and a high dose at 200% of the medium dose. The clinical human dose of liraglutide for treating obesity is 3.0 mg/injection, one injection per day, which corresponds to 270 μg/kg rat dose, calculated based on the body surface area.
The positive control was liraglutide injectable formulation, which was stored in dark, sealed condition. The rats were raised and kept at the Laboratory Animal Center, Shanghai University of Traditional Chinese Medicine.
The injectable formulations were made and diluted at the time of experiment, as follows:
The rats were fasted for 16 hours with only water provided. Before being divided into groups, the rats were weighed and weights were recorded (cage numbering and tail labeling). Based on the body weight, the rats were randomly divided into 5 groups, 10 in each group, half male and half female.
The rats were administered with appropriate amounts of Beinaglutide or liraglutide based on their body weights by subcutaneous injection. Female rats were injected after male rats, in the order of their group numbers: 101, 201, 301, 401, 501, 102, 202, 302, 402, 502, etc. The formulations were injected to the rats by lifting the skin in the back, placing the needle of the syringe subcutaneously and injecting. When retrieving the needle, the site of injection was pressed with hand to avoid leakage of the formulation. The amount of injection is about 0.1 ml/100 g body weight.

[7] = system: type 2 diabetic patients; test: trial 5A: Beinaglutide with glipizide in type 2 diabetic patients; type: in vivo, human
[8] = system: Sprague-Dawley (SD) rats; test: stomach emptying in male and female SD rats, various dosages (Example 6); conditions: for % of Gastric Remains / Gross Weight of Stomach / Propelling Distance of Carbon Powder / Propelling Rate of Carbon Powder: X ± SE
Procedure: as §1, §2

[9] = female rats, Beinaglutide 15 μg/kg subcutaneous
[10] = female rats, Beinaglutide 30 μg/kg subcutaneous
[11] = female rats, Beinaglutide 60 μg/kg subcutaneous
[12] = male rats, Beinaglutide 15 μg/kg subcutaneous
[13] = male rats, Beinaglutide 30 μg/kg subcutaneous
[14] = male rats, Beinaglutide 60 μg/kg subcutaneous
[15] = female rats, 10 μg/kg subcutaneous
[16] = female rats, 12.5 μg/kg subcutaneous
[17] = female rats, 15 μg/kg subcutaneous
[18] = female rats, 30 μg/kg subcutaneous
[19] = female rats, 45 μg/kg subcutaneous
[20] = female rats, 60 μg/kg subcutaneous
[21] = male rats, 10 μg/kg subcutaneous
[22] = male rats, 12.5 μg/kg subcutaneous
[23] = male rats, 15 μg/kg subcutaneous
[24] = male rats, 30 μg/kg subcutaneous
[25] = male rats, 45 μg/kg subcutaneous
[26] = male rats, 60 μg/kg subcutaneous

## CC[C@H](C)[C@H](NC(=O)[C@H](Cc1ccccc1)NC(=O)[C@H](CCC(=O)O)NC(=O)[C@H](CCCCN)NC(=O)[C@H](C)NC(=O)[C@H](C)NC(=O)[C@H](CCC(N)=O)NC(=O)CNC(=O)[C@H](CCC(=O)O)NC(=O)[C@H](CC(C)C)NC(=O)[C@H](Cc1ccc(O)cc1)NC(=O)[C@H](CO)NC(=O)[C@H](CO)NC(=O)[C@@H](NC(=O)[C@H](CC(=O)O)NC(=O)[C@H](CO)NC(=O)[C@@H](NC(=O)[C@H](Cc1ccccc1)NC(=O)[C@@H](NC(=O)CNC(=O)[C@H](CCC(=O)O)NC(=O)[C@H](C)NC(=O)[C@@H](N)Cc1cnc[nH]1)[C@@H](C)O)[C@@H](C)O)C(C)C)C(=O)N[C@@H](C)C(=O)N[C@@H](Cc1c[nH]c2ccccc12)C(=O)N[C@@H](CC(C)C)C(=O)N[C@H](C(=O)N[C@@H](CCCCN)C(=O)NCC(=O)N[C@@H](CCCNC(=N)N)C(=O)O)C(C)C [Beinaglutide]
[1]; from DIO mice 15 μg/kg
  human dose corresponding to effective dose: 0.12 mg/day
[1]; male DIO mice
  effective dose (inhibition of stomach emptying), as low as: 0.015 mg/kg
[1]; male DIO mice, 15 μg/kg
  % of Gastric Remains: 58.92 ± 3.39%
  Gross Weight of Stomach: 0.49 ± 0.02 g
  Propelling Distance of Carbon Powder: 20.50 ± 1.89 cm
  Propelling Rate of Carbon Powder: 47.34 ± 4.63%
[1]; male DIO mice, 20 μg/kg
  % of Gastric Remains: 63.46 ± 9.45%
  Gross Weight of Stomach: 0.50 ± 0.04 g
  Propelling Distance of Carbon Powder: 14.21 ± 2.59 cm
  Propelling Rate of Carbon Powder: 34.86 ± 6.72%
[1]; male DIO mice, 25 μg/kg
  % of Gastric Remains: 62.69 ± 7.26%
  Gross Weight of Stomach: 0.53 ± 0.03 g
  Propelling Distance of Carbon Powder: 15.00 ± 2.45 cm
  Propelling Rate of Carbon Powder: 35.25 ± 5.72%
[1]; male DIO mice, 50 μg/kg
  % of Gastric Remains: 70.86 ± 7.41%
  Gross Weight of Stomach: 0.55 ± 0.02 g
  Propelling Distance of Carbon Powder: 10.00 ± 1.04 cm
  Propelling Rate of Carbon Powder: 23.80 ± 2.41%
[1]; male DIO mice, 75 μg/kg
  % of Gastric Remains: 78.34 ± 5.75%
  Gross Weight of Stomach: 0.57 ± 0.03 g
  Propelling Distance of Carbon Powder: 9.29 ± 1.23 cm
  Propelling Rate of Carbon Powder: 21.51 ± 2.63%
[1]; male DIO mice, 100 μg/kg
  % of Gastric Remains: 74.37 ± 6.06%
  Gross Weight of Stomach: 0.56 ± 0.02 g
  Propelling Distance of Carbon Powder: 9.00 ± 1.12 cm
  Propelling Rate of Carbon Powder: 20.87 ± 2.19%
[2]
  effect on glucose-induced high blood sugar: lower glucose-induced high blood sugar
[3]
  half-life: 15 to 30 min
[4]
  effect on increase of blood sugar induced by alloxan and streptozotocin: reduce the increase of blood sugar induced by alloxan and streptozotocin
[5]
  effect on blood sugar and blood insulin level: neither decreased blood sugar nor increased blood insulin level
[6]; [9]
  % of Gastric Remains: 96.81 ± 11.61 %
  Gross Weight of Stomach: 3.10 ± 0.22 g
  Propelling Distance of Carbon Powder: 41.96 ± 5.30 cm
  Propelling Rate of Carbon Powder: 46.97 ± 5.54 %
[6]; [10]
  % of Gastric Remains: 132.66 ± 16.34 %
  Gross Weight of Stomach: 3.78 ± 0.35 g
  Propelling Distance of Carbon Powder: 30.58 ± 3.66 cm
  Propelling Rate of Carbon Powder: 33.88 ± 3.98 %
[6]; [11]
  % of Gastric Remains: 141.53 ± 7.18 %
  Gross Weight of Stomach: 3.90 ± 0.15 g
  Propelling Distance of Carbon Powder: 5.40 ± 1.84 cm
  Propelling Rate of Carbon Powder: 5.94 ± 1.99 %
[6]; [12]
  % of Gastric Remains: 44.14 ± 17.18%
  Gross Weight of Stomach: 2.86 ± 0.52 g
  Propelling Distance of Carbon Powder: 64.22 ± 3.84 cm
  Propelling Rate of Carbon Powder: 61.80 ± 4.14%
[6]; [13]
  % of Gastric Remains: 54.92 ± 14.32%
  Gross Weight of Stomach: 3.08 ± 0.48 g
  Propelling Distance of Carbon Powder: 34.40 ± 5.91 cm
  Propelling Rate of Carbon Powder: 35.46 ± 6.15 %
[6]; [14]
  % of Gastric Remains: 128.70 ± 14.23 %
  Gross Weight of Stomach: 5.36 ± 0.52 g
  Propelling Distance of Carbon Powder: 11.90 ± 6.38 cm
  Propelling Rate of Carbon Powder: 12.28 ± 6.69 %
[7]; 0.1 mg three times a day with glipizide, treatment for 2 weeks, FAS n = 24, before treatment 25.51 ± 2.59
  BMI: 25.53 ± 2.63 kg/m^2
[7]; 0.1 mg three times a day with glipizide, treatment for 4 weeks, FAS n = 24, before treatment 25.51 ± 2.59
  BMI: 25.40 ± 2.64 kg/m^2
[7]; 0.1 mg three times a day with glipizide, treatment for 8 weeks, FAS n = 24, before treatment 25.51 ± 2.59
  BMI: 25.25 ± 2.57 kg/m^2
[7]; 0.1 mg three times a day with glipizide, treatment for 12 weeks, FAS n = 24, before treatment 25.51 ± 2.59
  BMI: 25.20 ± 2.60 kg/m^2
[7]; 0.15 mg three times a day with glipizide, treatment for 2 weeks, FAS n = 24, before treatment 25.66 ± 2.64
  BMI: 25.63 ± 2.57 kg/m^2
[7]; 0.15 mg three times a day with glipizide, treatment for 4 weeks, FAS n = 24, before treatment 25.66 ± 2.64
  BMI: 25.45 ± 2.63 kg/m^2
[7]; 0.15 mg three times a day with glipizide, treatment for 8 weeks, FAS n = 24, before treatment 25.66 ± 2.64
  BMI: 25.19 ± 2.48 kg/m^2
[7]; 0.15 mg three times a day with glipizide, treatment for 12 weeks, FAS n = 24, before treatment 25.66 ± 2.64
  BMI: 25.11 ± 2.60 kg/m^2
[7]; 0.2 mg three times a day with glipizide, treatment for 2 weeks, FAS n = 23, before treatment 26.71 ± 4.17
  BMI: 26.44 ± 4.14 kg/m^2
[7]; 0.2 mg three times a day with glipizide, treatment for 4 weeks, FAS n = 23, before treatment 26.71 ± 4.17
  BMI: 26.52 ± 3.95 kg/m^2
[7]; 0.2 mg three times a day with glipizide, treatment for 8 weeks, FAS n = 23, before treatment 26.71 ± 4.17
  BMI: 26.09 ± 4.04 kg/m^2
[7]; 0.2 mg three times a day with glipizide, treatment for 12 weeks, FAS n = 23, before treatment 26.71 ± 4.17
  BMI: 25.92 ± 3.95 kg/m^2
[8]; female rats
  minimal effective dosage (inhibition of stomach emptying): 10 µg/kg
[8]; [15]
  % of Gastric Remains: 36.42 ± 6.50%
  Gross Weight of Stomach: 1.86 ± 0.14 g
  Propelling Distance of Carbon Powder: 53.01 ± 3.12 cm
  Propelling Rate of Carbon Powder: 49.92 ± 2.97 %
[8]; [16]
  % of Gastric Remains: 47.54 ± 5.22%
  Gross Weight of Stomach: 2.03 ± 0.10 g
  Propelling Distance of Carbon Powder: 49.50 ± 2.54 cm
  Propelling Rate of Carbon Powder: 46.83 ± 2.41 %
[8]; [17]
  % of Gastric Remains: 51.86 ± 6.07%
  Gross Weight of Stomach: 2.18 ± 0.11 g
  Propelling Distance of Carbon Powder: 44.50 ± 2.97 cm
  Propelling Rate of Carbon Powder: 41.26 ± 2.63 %
[8]; [18]
  % of Gastric Remains: 73.35 ± 16.68 %
  Gross Weight of Stomach: 2.59 ± 0.38 g
  Propelling Distance of Carbon Powder: 33.96 ± 5.58 cm
  Propelling Rate of Carbon Powder: 32.15 ± 5.54 %
[8]; [19]
  % of Gastric Remains: 120.95 ± 9.48 %
  Gross Weight of Stomach: 3.55 ± 0.21 g
  Propelling Distance of Carbon Powder: 25.06 ± 5.91 cm
  Propelling Rate of Carbon Powder: 23.18 ± 5.46 %
[8]; [20]
  % of Gastric Remains: 141.28 ± 8.90 %
  Gross Weight of Stomach: 3.90 ± 0.20 g
  Propelling Distance of Carbon Powder: 15.71 ± 4.58 cm
  Propelling Rate of Carbon Powder: 14.36 ± 4.08 %
[8]; from female rats 10 μg/kg
  human dose corresponding to minimal effective dosage: 0.11 mg/day
[8]; from male rats 30 μg/kg
  human dose corresponding to minimal effective dosage: 0.33 mg/day
[8]; male rats
  minimal effective dosage (inhibition of stomach emptying): 30 µg/kg
[8]; [21]
  % of Gastric Remains: 39.93 ± 6.46%
  Gross Weight of Stomach: 2.39 ± 0.19 g
  Propelling Distance of Carbon Powder: 55.20 ± 2.69 cm
  Propelling Rate of Carbon Powder: 50.91 ± 2.84%
[8]; [22]
  % of Gastric Remains: 38.98 ± 3.50%
  Gross Weight of Stomach: 2.36 ± 0.09 g
  Propelling Distance of Carbon Powder: 54.96 ± 3.96 cm
  Propelling Rate of Carbon Powder: 50.36 ± 3.34%
[8]; [23]
  % of Gastric Remains: 40.22 ± 7.06%
  Gross Weight of Stomach: 2.42 ± 0.20 g
  Propelling Distance of Carbon Powder: 52.27 ± 3.75 cm
  Propelling Rate of Carbon Powder: 48.22 ± 3.05%
[8]; [24]
  % of Gastric Remains: 58.23 ± 7.38 %
  Gross Weight of Stomach: 2.92 ± 0.23 g
  Propelling Distance of Carbon Powder: 42.82 ± 2.81 cm
  Propelling Rate of Carbon Powder: 38.55 ± 2.81 %
[8]; [25]
  % of Gastric Remains: 97.66 ± 9.95 %
  Gross Weight of Stomach: 3.90 ± 0.27 g
  Propelling Distance of Carbon Powder: 15.73 ± 4.30 cm
  Propelling Rate of Carbon Powder: 14.67 ± 4.13 %
[8]; [26]
  % of Gastric Remains: 110.28 ± 7.79 %
  Gross Weight of Stomach: 4.21 ± 0.19 g
  Propelling Distance of Carbon Powder: 14.64 ± 4.32 cm
  Propelling Rate of Carbon Powder: 12.91 ± 3.68 %
